From patent publication US4303785A, “Antitumor anthracycline antibiotics” (priority 1978, dated 1981)

Tested on: L1210 cells
Assay: animal or person
Type: in vivo, CDF1 mice
Conditions: for Antitumor Activity (T/C, prolongation rate of survival day): once daily for 10 days; for response vs control in vivo at 0.625 mg/kg / response vs control in vivo at 1.25 mg/kg / response vs control in vivo at 5 mg/kg / response vs control in vivo at 0.15 mg/kg / response vs control in vivo at 0.31 mg/kg / response vs control in vivo at 2.5 mg/kg: Mus musculus, L1210, ip, 1080 h; for response vs control in vivo at 0.625 mg/kg: read-out: Antitumor Activity (T/C, prolongation rate of survival day), 0.625 mg/kg/day i.p., once daily for 10 days; for response vs control in vivo at 1.25 mg/kg: read-out: Antitumor Activity (T/C, prolongation rate of survival day), 1.25 mg/kg/day i.p., once daily for 10 days; for response vs control in vivo at 5 mg/kg: read-out: Antitumor Activity (T/C, prolongation rate of survival day), 5 mg/kg/day i.p., once daily for 10 days; for response vs control in vivo at 0.15 mg/kg: read-out: Antitumor Activity (T/C, prolongation rate of survival day), 0.15 mg/kg/day i.p., once daily for 10 days; for response vs control in vivo at 0.31 mg/kg: read-out: Antitumor Activity (T/C, prolongation rate of survival day), 0.31 mg/kg/day i.p., once daily for 10 days; for response vs control in vivo at 2.5 mg/kg: read-out: Antitumor Activity (T/C, prolongation rate of survival day), 2.5 mg/kg/day i.p., once daily for 10 days
Experimental: D. Representative compounds of general formula I" were tested against experimental animal tumors as follows: […]
CDF1 mice were administered intraperitoneally (i.p.) with 1×10^5 cells/mouse of L1210 cells. After 24 hours had elapsed since inoculation, the mice were administered the test compounds intraperitoneally once daily for 10 consecutive days and observed for a 45 day period.
The antitumor activity was shown by the prolongation rate of survival day (T/C, %) to the survival day of control mice injected with physiological saline.

Compound | Antitumor Activity (T/C, prolongation rate of survival day) (0.31 mg/kg/day i.p.) | Antitumor Activity (T/C, prolongation rate of survival day) (2.5 mg/kg/day i.p.) | response vs control in vivo at 0.625 mg/kg | response vs control in vivo at 1.25 mg/kg | response vs control in vivo at 5 mg/kg | Antitumor Activity (T/C, prolongation rate of survival day) (0.625 mg/kg/day i.p.) | Antitumor Activity (T/C, prolongation rate of survival day) (1.25 mg/kg/day i.p.) | Antitumor Activity (T/C, prolongation rate of survival day) (5 mg/kg/day i.p.) | Antitumor Activity (T/C, prolongation rate of survival day) (0.15 mg/kg/day i.p.) | response vs control in vivo at 0.15 mg/kg | response vs control in vivo at 0.31 mg/kg | response vs control in vivo at 2.5 mg/kg
COc1cccc2c1C(=O)c1c(O)c3c(c(O)c1C2=O)C[C@@](O)(C(=O)COC(C)=O)C[C@@H]3O[C@H]1C[C@H](N)[C@H](OC2CCCCO2)[C@H](C)O1 (single isomer, unassigned) [Example 1-a, 14-O-acetyl-4'-O-tetrahydropyranyl adriamycin a] | 203% | 239% | 195% | 228% | 225% | – | – | – | – | – | – | –
COc1cccc2c1C(=O)c1c(O)c3c(c(O)c1C2=O)C[C@@](O)(C(=O)COC(C)=O)C[C@@H]3O[C@H]1C[C@H](N)[C@H](OC2CCCCO2)[C@H](C)O1 (single isomer, unassigned) [Example 1-b, 14-O-acetyl-4'-O-tetrahydropyranyl adriamycin b] | 145% | 218% | – | – | – | 184% | 220% | 241% | – | – | – | –
COc1cccc2c1C(=O)c1c(O)c3c(c(O)c1C2=O)C[C@@](O)(C(=O)CO)C[C@@H]3O[C@H]1C[C@H](N)[C@H](OC2CCCO2)[C@H](C)O1 (single isomer, unassigned) [Example 5-a, 4'-O-tetrahydrofuranyl adriamycin a] | 115% | 288% | – | – | – | 135% | 189% | 212% | 115% | – | – | –
COc1cccc2c1C(=O)c1c(O)c3c(c(O)c1C2=O)C[C@@](O)(C(=O)CO)C[C@@H]3O[C@H]1C[C@H](N)[C@H](OC2CCCO2)[C@H](C)O1 (single isomer, unassigned) [Example 5-b, 4'-O-tetrahydrofuranyl adriamycin b] | 128% | 230% | – | – | – | 141% | 154% | 256% | 122% | – | – | –
CCOC(C)O[C@@H]1[C@H](C)O[C@@H](O[C@H]2C[C@](O)(C(=O)CO)Cc3c(O)c4c(c(O)c32)C(=O)c2c(OC)cccc2C4=O)C[C@@H]1N (single isomer, unassigned) [Example 7-a, 4'-O-(1-ethyloxyethyl) adriamycin a] | – | 277% | 127% | 145% | – | – | – | 108% | – | 96% | 101% | –
CCOC(C)O[C@@H]1[C@H](C)O[C@@H](O[C@H]2C[C@](O)(C(=O)CO)Cc3c(O)c4c(c(O)c32)C(=O)c2c(OC)cccc2C4=O)C[C@@H]1N (single isomer, unassigned) [Example 7-b, 4'-O-(1-ethyloxyethyl) adriamycin b] | 108% | 151% | – | – | – | 127% | 157% | 211% | 108% | – | – | –
CCCCOC(C)O[C@@H]1[C@H](C)O[C@@H](O[C@H]2C[C@](O)(C(=O)CO)Cc3c(O)c4c(c(O)c32)C(=O)c2c(OC)cccc2C4=O)C[C@@H]1N (single isomer, unassigned) [Example 8-a, 4'-O-(1-butyloxyethyl) adriamycin a] | – | – | 119% | 125% | – | – | – | 163% | – | 100% | 100% | 138%
CCCCOC(C)O[C@@H]1[C@H](C)O[C@@H](O[C@H]2C[C@](O)(C(=O)CO)Cc3c(O)c4c(c(O)c32)C(=O)c2c(OC)cccc2C4=O)C[C@@H]1N (single isomer, unassigned) [Example 8-b, 4'-O-(1-butyloxyethyl) adriamycin b] | 100% | 138% | – | – | – | 106% | 119% | 288% | 100% | – | – | –
COc1cccc2c1C(=O)c1c(O)c3c(c(O)c1C2=O)C[C@@](O)(C(=O)CO)C[C@@H]3O[C@H]1C[C@H](N)[C@H](OC(C)OCC(C)C)[C@H](C)O1 (single isomer, unassigned) [Example 9-a, 4'-O-(1-isobutyloxyethyl) adriamycin a] | – | – | 112% | 125% | – | – | – | 257% | – | 105% | 105% | 151%
COc1cccc2c1C(=O)c1c(O)c3c(c(O)c1C2=O)C[C@@](O)(C(=O)CO)C[C@@H]3O[C@H]1C[C@H](N)[C@H](OC(C)OCC(C)C)[C@H](C)O1 (single isomer, unassigned) [Example 9-b, 4'-O-(1-isobutyloxyethyl) adriamycin b] | 118% | 158% | – | – | – | 105% | 118% | 303% | 99% | – | – | –
COc1cccc2c1C(=O)c1c(O)c3c(c(O)c1C2=O)C[C@@](O)(C(=O)CO)C[C@@H]3O[C@H]1C[C@H](N)[C@H](OC(C)OCCCCCC(C)C)[C@H](C)O1 (single isomer, unassigned) [Example 10-a, 4'-O-(1-(6-methylheptyloxy)ethyl) adriamycin a] | – | – | 99% | 118% | 125% | – | – | – | – | 105% | 92% | 125%
COc1cccc2c1C(=O)c1c(O)c3c(c(O)c1C2=O)C[C@@](O)(C(=O)CO)C[C@@H]3O[C@H]1C[C@H](N)[C@H](OC(C)OCCCCCC(C)C)[C@H](C)O1 (single isomer, unassigned) [Example 10-b, 4'-O-(1-(6-methylheptyloxy)ethyl) adriamycin b] | 105% | 105% | – | – | – | 112% | 112% | 118% | 105% | – | – | –
COc1cccc2c1C(=O)c1c(O)c3c(c(O)c1C2=O)C[C@@](O)(C(=O)CO)C[C@@H]3O[C@H]1C[C@H](N)[C@H](OC(C)OC2CCCCC2)[C@H](C)O1 (single isomer, unassigned) [Example 11-a, 4'-O-(1-cyclohexyloxyethyl) adriamycin a] | – | – | 105% | 118% | – | – | – | 184% | – | 105% | 99% | 125%
COc1cccc2c1C(=O)c1c(O)c3c(c(O)c1C2=O)C[C@@](O)(C(=O)CO)C[C@@H]3O[C@H]1C[C@H](N)[C@H](OC(C)OC2CCCCC2)[C@H](C)O1 (single isomer, unassigned) [Example 11-b, 4'-O-(1-cyclohexyloxyethyl) adriamycin b] | 105% | 125% | – | – | – | 105% | 105% | 145% | 105% | – | – | –
COc1cccc2c1C(=O)c1c(O)c3c(c(O)c1C2=O)C[C@@](O)(C(C)=O)C[C@@H]3O[C@H]1C[C@H](N)[C@H](OC2CCCC(OC)O2)[C@H](C)O1 (single isomer, unassigned) [Example 14-a, 4'-O-(6-methoxytetrahydropyranyl) daunomycin a] | – | – | 100% | 106% | – | – | – | 232% | – | 100% | 100% | 125%
COc1cccc2c1C(=O)c1c(O)c3c(c(O)c1C2=O)C[C@@](O)(C(C)=O)C[C@@H]3O[C@H]1C[C@H](N)[C@H](OC2CCCC(OC)O2)[C@H](C)O1 (single isomer, unassigned) [Example 14-b, 4'-O-(6-methoxytetrahydropyranyl) daunomycin b] | 100% | 131% | – | – | – | 106% | 113% | 463% | 94% | – | – | –
